According to US20250353825A1, “CANNABICYCLOL DERIVATIVES AND PREPARATION METHODS THEREOF” (priority 2023, published 2025):
Converted amounts (≈) assume the structure as drawn.

Assays:
Type in all cases: cell-based
T98G = experiment: MTS cell viability assay, T98G; details: Homo sapiens, Table 7, 72 hours, read-out: IC50 against T98G
Description: (§1) Primary viability screening: (1) the synthesized compounds 3a to 13d were respectively dissolved in DMSO to prepare a 40 μg/mL cannabicyclol and cannabicyclol derivative solutions.
(§2) (2) A control group: a 200 μL DMSO solvent.
(§3) (3) The solutions of compounds 3a to 13d were diluted in a twofold gradient to obtain cannabicyclol and cannabicyclol derivative solutions at concentrations of 40 μg/mL, 20 μg/mL, 10 μg/mL, 5 μg/mL, 2.5 μg/mL, 1.25 μg/mL, and 0.625 μg/mL, and 0.3125 μg/mL, respectively.
(§4) (4) Three glioblastoma stem cells (GSC-3, GSC-12, and GSC-18), three pancreatic cancer cell-derived stem cells (PANC-1-CSC, BXPC-3-CSC, and ASPC1-CSC), three liver cancer cell-derived stem cells (HepG2-CSC, MHCC97H-CSC, and SMMC7721-CSC), HEK-293T cells, 16 tumor cells (U251, U87, T98G, PANC1, BXPC3, ASPC1, HepG2, MHCC97H, SMMC7721, PC3, SKOV3, MDA-MB231, A549, HCT116, HEC-1B, MKN28), and differentiated glioblastoma stem cells (GSC-3diff and GSC-12diff) derived from GSC-3 and GSC-12 (all of the cells were provided by the Laboratory of Tumor Animal Model Preparation and Application Research, West China Hospital, Sichuan University) were inoculated into a 96-well plate at a concentration of 2×10^4 cells/well, and 100 μL of culture medium was then added to each well; […]
(§5) (10) The absorbance value at 490 nm was measured on an enzyme labeling apparatus, and the IC50 value was calculated.

GSC-12 = experiment: MTS cell viability assay, GSC-12; details: GSC12; Table 6, tumor stem cell, 72 hours; read-out: IC50 against GSC-12
Description: as §1, §2, §3, §4, §5

BXPC3 = experiment: MTS cell viability assay, BXPC3; details: Homo sapiens, BXPC-3; Table 7, 72 hours; read-out: IC50 against BXPC3
Description: as §1, §2, §3, §4, §5

PANC1-CSC = experiment: MTS cell viability assay, PANC1-CSC; details: Table 6, tumor stem cell, 72 hours; read-out: IC50 against PANC1-CSC
Description: as §1, §2, §3, §4, §5

U87 = experiment: MTS cell viability assay, U87; details: Homo sapiens, U-87 MG; Table 7, 72 hours; read-out: IC50 against U87
Description: as §1, §2, §3, §4, §5

SMMC7721-CSC = experiment: MTS cell viability assay, SMMC7721-CSC; details: Table 6, tumor stem cell, 72 hours; read-out: IC50 against SMMC7721-CSC
Description: as §1, §2, §3, §4, §5

MKN28 = experiment: MTS cell viability assay, MKN28; details: Homo sapiens, MKN-28; Table 7, 72 hours; read-out: IC50 against MKN28
Description: as §1, §2, §3, §4, §5

SKOV3 = experiment: MTS cell viability assay, SKOV3; details: Homo sapiens, SK-OV-3; Table 7, 72 hours; read-out: IC50 against SKOV3
Description: as §1, §2, §3, §4, §5

HepG2-CSC = experiment: MTS cell viability assay, HepG2-CSC; details: Table 6, tumor stem cell, 72 hours; read-out: IC50 against HepG2-CSC
Description: as §1, §2, §3, §4, §5

HEC18 = experiment: MTS cell viability assay, HEC18; details: Table 7, 72 hours; read-out: IC50 against HEC18
Description: as §1, §2, §3, §4, §5

MHCC97H-CSC = experiment: MTS cell viability assay, MHCC97H-CSC; details: Table 6, tumor stem cell, 72 hours; read-out: IC50 against MHCC97H-CSC
Description: as §1, §2, §3, §4, §5

A549 = experiment: MTS cell viability assay, A549; details: Homo sapiens, Table 7, 72 hours, read-out: IC50 against A549
Description: as §1, §2, §3, §4, §5

In the case of CCCCCc1cc(O)c2c(c1)OC1(C)CCC3C1C2C3(C)C (stereo not drawn) [Compound 3a, cannabicyclol], the IC50 (T98G) was > 40 µg/mL, the IC50 (GSC-12) was 8.03 µg/mL (≈ 25.5 µM) and the IC50 (BXPC3) was > 40 µg/mL. The IC50 (PANC1-CSC) was 13 µg/mL (≈ 41.3 µM), the IC50 (U87) was > 40 µg/mL and the IC50 (SMMC7721-CSC) was 3.85 µg/mL (≈ 12.2 µM). For the same compound, the IC50 (MKN28) was > 40 µg/mL, the IC50 (SKOV3) was > 40 µg/mL and the IC50 (HepG2-CSC) was 2.37 µg/mL (≈ 7.54 µM). For the same compound, the IC50 (HEC18) was > 40 µg/mL, the IC50 (MHCC97H-CSC) was 5.32 µg/mL (≈ 16.9 µM) and the IC50 (A549) was > 40 µg/mL.
